Results reported in PubChem BioAssay (NCI).
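Cells were grown in 96-well plates and exposed to each compound for 48 hours at five concentrations; endpoints were interpolated linearly between bracketing concentrations, or set to the highest concentration if not reached. At the GI50, growth is halved. Definition used: TGI = concentration required for complete inhibition of growth.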

Experiments:
Experiment in all cases: DTP human tumour cell line panel, 48 h
HCT-116 colon = test system: HCT-116 colon
KM12 colon = test system: KM12 colon
MCF7 breast = test system: MCF7 breast
OVCAR-3 ovarian = test system: OVCAR-3 ovarian
OVCAR-4 ovarian = test system: OVCAR-4 ovarian
PC-3 prostate = test system: PC-3 prostate
RXF 393 renal = test system: RXF 393 renal
SF-295 CNS = test system: SF-295 CNS
UACC-62 melanoma = test system: UACC-62 melanoma
UO-31 renal = test system: UO-31 renal

| Structure (SMILES) | TGI (HCT-116 colon) | TGI (KM12 colon) | TGI (MCF7 breast) | TGI (OVCAR-3 ovarian) | TGI (OVCAR-4 ovarian) | TGI (PC-3 prostate) | TGI (RXF 393 renal) | TGI (SF-295 CNS) | TGI (UACC-62 melanoma) | TGI (UO-31 renal) | GI50 (KM12 colon) | GI50 (MCF7 breast) | GI50 (PC-3 prostate) | GI50 (RXF 393 renal) | GI50 (SF-295 CNS) | GI50 (UACC-62 melanoma) | GI50 (UO-31 renal) |
| --- | --- | --- | --- | --- | --- | --- | --- | --- | --- | --- | --- | --- | --- | --- | --- | --- | --- |
| CSc1cc(Cl)c(C)cc1S(=O)(=O)NC(=O)NNc1ccc(Cl)cc1 | > 100 µM | > 100 µM | > 100 µM | > 100 µM | > 100 µM | > 100 µM | > 100 µM | > 100 µM |  |  |  |  |  |  |  |  |  |
| CC(C(=O)n1nnc2ccccc21)N(c1ccccc1)c1ccccc1 (stereo unspecified) | > 100 µM |  |  | > 100 µM |  |  | > 100 µM | > 100 µM | > 100 µM | > 100 µM |  |  |  |  |  |  |  |
| CN(C)c1ccc(C=C2N=C(c3ccccc3)N(c3cc(C(=O)c4ccccc4)ccc3N3C(=O)/C(=C/c4ccc(N(C)C)cc4)N=C3c3ccccc3)C2=O)cc1 | 95.4 µM | > 100 µM | > 100 µM | 5.57 µM | > 100 µM | 28.2 µM |  | 27.1 µM | > 100 µM | > 100 µM |  |  |  |  |  |  |  |
| CC(=O)OCC1OC(n2cc([N+](=O)[O-])c(=O)[nH]c2=O)C(OC(C)=O)C(OC(C)=O)C1OC(C)=O (stereo unspecified) | > 100 µM | > 100 µM |  | > 100 µM | > 100 µM |  | > 100 µM | > 100 µM | > 100 µM | > 100 µM |  |  |  |  |  |  |  |
| CC(C)(C)NC(=O)/C(=C\Sc1ccccc1)c1ccc2c(c1)OCO2 | 65.8 µM | > 100 µM | 60.6 µM | > 100 µM | > 100 µM | 73.7 µM |  | > 100 µM | 57.9 µM | > 100 µM |  |  |  |  |  |  |  |
| O=C(/C=C/c1ccsc1)c1ccsc1 | 30.3 µM | 37.7 µM | 32.4 µM |  | > 100 µM | 35.6 µM |  | > 100 µM | 89.9 µM | 28.7 µM |  |  |  |  |  |  |  |
| C=CCNC(=S)/N=C/c1c(O)c2ccccc2oc1=O | > 100 µM | > 100 µM |  | > 100 µM | > 100 µM |  | 85.8 µM | > 100 µM | > 100 µM | > 100 µM |  |  |  |  |  |  |  |
| O=[N+]([O-])/C(C(Cl)=C(Cl)Cl)=C(\Nc1cccc2cccnc12)SCc1ccccc1 | 36.1 µM | 50.4 µM | 36.5 µM | 32.8 µM | 46 µM | 36.5 µM |  | 37.4 µM | 63.7 µM | 38.1 µM |  |  |  |  |  |  |  |
| Cc1c(C(=O)CSc2nc3ccccc3c(=O)n2-c2ccccc2)c(=O)n(-c2ccccc2)n1C | > 100 µM | > 100 µM |  | 73.5 µM | > 100 µM |  |  | 66.2 µM |  | 79.4 µM |  |  |  |  |  |  |  |
| CO[C@]12CC(=O)C3(C(C[C@H]4CC5CC=C6C[C@@H](OC(C)=O)CC[C@]6(OC(C)=O)C5C[C@@]43C)C1)C1C[C@H]3[C@@H]4CC=C5C[C@@H](OC(C)=O)CC[C@]5(OC(C)=O)[C@H]4CC[C@]3(C)C12 (stereo partly specified) | > 100 µM | 54.3 µM | > 100 µM | 56.4 µM | 24.4 µM | > 100 µM |  | 54 µM | 79 µM | 52.6 µM |  |  |  |  |  |  |  |
| CC(=O)N/N=C1\NC(=O)C[C@H]2[C@@H]3CC=C4C[C@@H](OC(C)=O)CC[C@]4(C)[C@H]3CC[C@]12C | > 100 µM | > 100 µM | > 100 µM | > 100 µM | 25.7 µM | > 100 µM |  | 45.1 µM | 59 µM | > 100 µM |  |  |  |  |  |  |  |
| Brc1cccc(Nc2nc(-c3cccs3)nc3ccc(Br)cc23)c1 | > 100 µM | 46.3 µM | > 100 µM | 82.1 µM | > 100 µM | > 100 µM |  | 45.1 µM | 35.8 µM | > 100 µM |  |  |  |  |  |  |  |
| Cc1nn(C(=O)Cc2ccccc2)c2c1C(c1ccc(O)cc1)SC(N)=N2 (stereo unspecified) | > 100 µM | > 100 µM | > 100 µM |  |  | > 100 µM |  | > 100 µM | > 100 µM | > 100 µM |  |  |  |  |  |  |  |
| COc1cc([N+](=O)[O-])c(OC)cc1-c1nc2sc(Cl)cn2c1/C=N/Nc1ccccn1 |  | > 50 µM | 32 µM |  |  | > 50 µM | 26.2 µM | 41.8 µM | > 50 µM | > 50 µM | > 50 µM | 11.1 µM | 16.4 µM | 12.6 µM | 12.4 µM | 26 µM | > 50 µM |
| COc1ccc(C#CC(=O)O)c(OC)c1 | > 100 µM | > 100 µM | > 100 µM | > 100 µM | > 100 µM | > 100 µM |  | > 100 µM | > 100 µM | > 100 µM |  |  |  |  |  |  |  |
| N=S(c1ccccc1)c1ccccc1[N+](=O)[O-] (stereo unspecified) | 31.6 µM | 32.7 µM |  | 23.2 µM | 28.4 µM |  |  | 36.7 µM | 36.2 µM | 29.5 µM |  |  |  |  |  |  |  |
| CN(C)Cc1cc(C(=O)/C=C/c2ccc(O)cc2)cc(CN(C)C)c1O | > 100 µM | > 100 µM | > 100 µM | 56.2 µM |  | > 100 µM | > 100 µM | > 100 µM | > 100 µM | > 100 µM |  |  |  |  |  |  |  |
| COc1ccc(CC(O)CN2CCOCC2)cc1 (stereo unspecified) | > 100 µM | > 100 µM |  | > 100 µM | > 100 µM | > 100 µM | > 100 µM | > 100 µM | > 100 µM | > 100 µM |  |  |  |  |  |  |  |
| Cc1cc2[nH]c3[nH]c(=O)[nH]c(=O)c3c2cc1C | > 100 µM | > 100 µM | > 100 µM |  |  |  | > 100 µM | > 100 µM | > 100 µM | > 100 µM |  |  |  |  |  |  |  |
| COc1ccc2nc3cc(Cl)ccc3c(NCCCNCCCNc3c4ccc(Cl)cc4nc4ccc(OC)cc34)c2c1 |  |  | 0.157 µM | 0.61 µM |  | 0.182 µM | 0.453 µM | 0.183 µM | 0.189 µM | 0.989 µM |  |  |  |  |  |  |  |
| O=C1c2cc3c(cc2CC1Br)CCC3 (stereo unspecified) | 3.03 µM | 22.1 µM |  | 3.86 µM | 3.86 µM | 11.7 µM | 4.04 µM | 11.5 µM | 11.7 µM | 22.4 µM |  |  |  |  |  |  |  |
| CCCCC1c2c([nH]c3ccccc23)C2C(=O)N(c3ccc(OC)cc3)C(=O)C2C1CCC (stereo unspecified) | 7.56 µM | 5.65 µM |  | 6.26 µM | > 10 µM | 7.46 µM | > 10 µM | > 10 µM | 6.77 µM | > 10 µM |  |  |  |  |  |  |  |
| COCOc1ccc(Cn2c(=O)n(C)c(=O)c3c2ncn3C)cc1[N+](=O)[O-] | > 100 µM | > 100 µM |  | > 100 µM |  |  | > 100 µM | > 100 µM | > 100 µM | > 100 µM |  |  |  |  |  |  |  |
| C/C=C/C=C/c1nc(C#N)c(N)o1 | > 100 µM |  | > 100 µM | > 100 µM | > 100 µM | > 100 µM | > 100 µM | > 100 µM | > 100 µM | > 100 µM |  |  |  |  |  |  |  |
